Measurements from US20220348571A1, “DIHYDROPYRIMIDINE DERIVATIVES AND USES THEREOF IN THE TREATMENT OF HBV INFECTION OR OF HBV-INDUCED DISEASES” (Janssen Sciences Ireland Unlimited Company, priority 2018, published 2022).
Counter-ions that a name gives are not always drawn. Like-named read-outs stand apart in the source and are kept apart here.

What was measured:
Assay type in all cases: cell-based
[1] = tested on: HBV; assay: Anti-viral assay in HepG2.2.15 cells: HBV inhibitory activity (HBV DNA in culture medium by q-PCR); conditions: Hepatitis B virus, HepG2.2.15, 144 h
Description: (§1) Example 2: Anti-Viral Assay in HepG2.2.15 Cells
(§2) 1.1. Cell line • HepG2.2.15 (the HepG2.2.15 cell line can be produced by transfection of the HepG2 cell line as described in Sells, Chen, and Acs 1987 (Proc. Natl. Acad. Sci. USA 84:1005-1009), and the HepG2 cell line is available from ATCC® under number HB-8065™).
(§3) Seed the cell HepG2.2.15 cells into 96-well plate in 2% FBS culture medium at the density of 40,000 cells/well and 5,000 cells/well for HBV inhibitory activity and cytotoxicity determination, respectively. After seeding, incubate the cell plates at 37° C., 5% CO2 overnight. The next day, medium containing compounds is added to the cell to treat the cells for 6 days with medium refreshed once in the middle of the treatment. 8 dose points with 3 folds dilution of each compound were adopted and the highest concentration of the compounds is 10 uM and 100 uM for HBV inhibitory activity and cytotoxicity determination, respectively.
The HBV DAN change in the cell culture medium induced by the compounds is measured by q-PCR method. Briefly, the HBV DNA in the culture medium is extracted using QIAamp 96 DNA Blood Kit according to the manual and then quantified by q-PCR using the primers and probe in the table below.
(§4) 2.2. DATA Analysis EC50 and CC50 values are calculated by the GRAPHPAD PRISM software.

[2] = Cytotoxicity determination in HepG2.2.15 cells (CCK-8); conditions: human, 6 days treatment, CCK-8, highest concentration 100 uM
Description: as §1, §2, §3
(§5) After 6 days of compounds treatment, add 20 μl CCK-8 reagents to each well of cytotoxicity assay plates, incubate the plate at 37° C., 5% CO2 for 2.5 h and measure the absorbance at 450 nm wavelength, at the same time read the absorbance at 630 nm wavelength as reference.
as §4

[3] = tested on: HepG2.2.15 cells; assay: as above; conditions: 6 days treatment, CCK-8, highest concentration 100 uM
Description: as §1, §2, §3, §5, §4

[4] = HepG2.2.15 cells, 6 days treatment, HBV DNA in culture medium by q-PCR, highest concentration 10 uM, read-out: EC50

Row | SMILES | EC50 [1, 4] [µM] | CC50 at 6 days [2] [µM] | EC50 [1] [µM] | CC50 [3] [µM]
1 | CCOC(=O)C1=C([C@H]2CC[C@@H](n3nccc3C(=O)O)CC2)NC(c2nccs2)=NC1c1ccc(F)c(F)c1Cl (single isomer, unassigned) [Compound I-39-B, (cis)-1-(4-(6-(2-Chloro-3,4-difluorophenyl)-5-(ethoxycarbonyl)-2-(thiazol-2-yl)-3,6-dihydropyrimidin-4-yl)cyclohexyl)-1H-pyrazole-5-carboxylic acid] | 0.082 | – | – | –
2 | COC(=O)C1=C(C2CCN(c3ncc(C)c(C(=O)O)n3)CC2)NC(c2nccs2)=NC1c1cccc(F)c1C (single isomer, unassigned) [II-5-B] | 0.049 | 25.8 | – | –
3 | CCOC(=O)C1=C(C2CCN(c3nc(C)c(C(=O)O)o3)CC2)NC(c2nccs2)=NC1c1ccc(F)c(F)c1Cl (single isomer, unassigned) [II-64-B, Lithium 2-(4-(6-(2-chloro-3,4-difluorophenyl)-5-(ethoxycarbonyl)-2-(thiazol-2-yl)-3,6-dihydropyrimidin-4-yl)piperidin-1-yl)-4-methyloxazole-5-carboxylate] | – | – | 0.075 | 6.84
4 | CCOC(=O)C1=C(C2CCN(c3ncc(C(=O)O)c(OC)n3)CC2)NC(c2nccs2)=NC1c1ccc(F)c(F)c1Cl (single isomer, unassigned) [II-72-B, 2-(4-(6-(2-Chloro-3,4-difluorophenyl)-5-(ethoxycarbonyl)-2-(thiazol-2-yl)-3,6-dihydropyrimidin-4-yl)piperidin-1-yl)-4-methoxypyrimidine-5-carboxylic acid] | 0.062 | 5.59 | – | –
5 | CCOC(=O)C1=C(C2CCN(c3cnc(C(=O)O)s3)CC2)NC(c2nccs2)=NC1c1ccc(F)c(F)c1Cl (single isomer, unassigned) [II-76-B, 5-(4-(6-(2-Chloro-3,4-difluorophenyl)-5-(ethoxycarbonyl)-2-(thiazol-2-yl)-3,6-dihydropyrimidin-4-yl)piperidin-1-yl)thiazole-2-carboxylate lithium salt] | – | – | 0.09 | 6.68
6 | CCOC(=O)Cc1coc([C@H]2CC[C@H](C3=C(C(=O)OCC)C(c4ccc(F)c(F)c4Cl)N=C(c4nccs4)N3)CC2)n1 (single isomer, unassigned) [VII-23-Y, (trans)-Ethyl 4-(2-chloro-3,4-difluorophenyl)-(4-(4-(2-ethoxy-2-oxoethyl)oxazol-2-yl)cyclohexyl)-2-(thiazol-2-yl)-1,4-dihydropyrimidine-5-carboxylate] | – | 8.18 | – | –
